Source: patent US20240247024A1, “INHIBITORS OF NICOTINAMIDE N-METHYL TRANSFERASE (NNMT)” (UNIVERSITEIT LEIDEN, priority 2021, published 2024)
Several values for one entry are separate records, joined by “and”; a condition that tells them apart may be missing. Identical values can stand only once. Like-named read-outs stand apart in the source and are kept apart here.

Molecular target: T1, NNMT (Homo sapiens, UniProt P40261)
T1 sequence (P40261 1-264): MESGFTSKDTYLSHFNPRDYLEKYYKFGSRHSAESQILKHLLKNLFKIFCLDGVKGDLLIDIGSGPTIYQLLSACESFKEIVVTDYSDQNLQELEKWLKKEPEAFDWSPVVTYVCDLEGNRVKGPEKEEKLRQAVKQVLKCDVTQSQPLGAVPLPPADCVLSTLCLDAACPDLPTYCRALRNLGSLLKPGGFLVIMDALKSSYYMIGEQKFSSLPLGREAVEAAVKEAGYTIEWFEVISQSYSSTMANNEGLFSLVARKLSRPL
Test: NNMT assay (HILIC-MS/MS, formation of MNA)
Settings: NA 200 μM, SAM 8.5 μM

[1] = IC50 values (nM), Table 3, 1-carbon alkyl linkers, maximum concentration tested 25 μM
[2] = IC50 values (μM), Table 3, 1-carbon alkyl linkers, maximum concentration tested 25 μM
[3] = IC50 values (nM), Table 6, amino acid replacement, maximum concentration tested 25 μM
[4] = IC50 values (μM), Table 6, amino acid replacement, maximum concentration tested 25 μM
[5] = read-out: IC50 values, Table 1, alkene linked aromatics, maximum concentration tested 25 μM
[6] = IC50 values (nM), Table 1, alkene linked aromatics, maximum concentration tested 25 μM
[7] = IC50 values (μM), Table 1, alkene linked aromatics, maximum concentration tested 25 μM
[8] = IC50 values (nM), Table 9, compounds CM035 and CM037
[9] = IC50 values (μM), Table 9, compounds CM035 and CM037

In the case of `Nc1ncnc2c1ncn2[C@@H]1O[C@H](CN(CC[C@H](N)C(=O)O)Cc2ccccc2F)[C@@H](O)[C@H]1O` [GYZ-421], the IC50 [1] is reported as over 25000 nM and the IC50 [2] is reported as over 25000 nM.

`N#Cc1ccc(/C=C/CN(CCCNC(=O)CCl)C[C@H]2O[C@@H](n3cnc4c(N)ncnc43)[C@H](O)[C@@H]2O)cc1` [GYZ-608] gave an IC50 [3] of 11900 nM and an IC50 [4] of 11900 nM.

Compound `N#Cc1ccc(/C=C/CN(CCCCc2ccccc2)C[C@H]2O[C@@H](n3cnc4c(N)ncnc43)[C@H](O)[C@@H]2O)cc1` [GYZ-756] has an IC50 [3] of over 25000 nM and an IC50 [4] of over 25000 nM.

Work on `N#Cc1ccc(/C=C/CN(CCNC(=O)C(F)(F)Cl)C[C@H]2O[C@@H](n3cnc4c(N)ncnc43)[C@H](O)[C@@H]2O)cc1` [GYZ-701] yielded an IC50 [3] of over 25000 nM and an IC50 [4] of over 25000 nM.

With `N#Cc1ccc(/C=C/CN(CC[C@H](N)C(=O)O)C[C@H]2O[C@@H](n3cnc4c(N)ncnc43)[C@H](O)[C@@H]2O)c(F)c1` [GYZ-674] the IC50 [5] was 5 nM and 5.33 nM.

`Nc1ncnc2c1ncn2[C@@H]1O[C@H](CN(CCCc2ccc([N+](=O)[O-])cc2)CC[C@H](N)C(=O)O)[C@@H](O)[C@H]1O` [GYZ-447] was tested, and the IC50 (IC50 values (nM), Table 5, 3-carbon alkyl linkers) was 294 nM and the IC50 (IC50 values (μM), Table 5, 3-carbon alkyl linkers) was 290 nM.

With `N#Cc1ccc(/C=C/CN(CC(=O)CCl)C[C@H]2O[C@@H](n3cnc4c(N)ncnc43)[C@H](O)[C@@H]2O)cc1` [GYZ-702] the IC50 [3] was 980 nM and the IC50 [4] was 980 nM.

With `COC(=O)/C=C/C(=O)NCCN(C/C=C/c1ccc(C#N)cc1)C[C@H]1O[C@@H](n2cnc3c(N)ncnc32)[C@H](O)[C@@H]1O` [GYZ-694] the IC50 [3] was over 25000 nM and the IC50 [4] was over 25000 nM.

In the case of `Nc1ncnc2c1ncn2[C@@H]1O[C@H](CN(C/C=C/c2ccc(C(F)(F)F)cc2)CC[C@H](N)C(=O)O)[C@@H](O)[C@H]1O` [GYZ-350], the IC50 [5] is reported as 1390 nM.

`Nc1ncnc2c1ncn2[C@@H]1O[C@H](CN(C/C=C/c2cccc(B(O)O)c2)CC[C@H](N)C(=O)O)[C@@H](O)[C@H]1O` [GYZ-746] showed an IC50 [5] of 1660 nM.

Compound `N#CCC(=O)NCCN(C/C=C/c1ccc(C#N)cc1)C[C@H]1O[C@@H](n2cnc3c(N)ncnc32)[C@H](O)[C@@H]1O` [GYZ-695] has an IC50 [3] of 931 nM and an IC50 [4] of 931 nM.

In the case of `Nc1ncnc2c1ncn2[C@@H]1O[C@H](CN(CC[C@H](N)C(=O)O)Cc2ccccc2C(F)(F)F)[C@@H](O)[C@H]1O` [GYZ-415], the IC50 [1] is reported as 9700 nM and the IC50 [2] is reported as 9700 nM.

`N#Cc1ccc(/C=C/CN(CC[C@H](N)C(=O)O)C[C@H]2O[C@@H](n3cnc4c(N)ncnc43)[C@H](O)[C@@H]2O)cc1C(N)=O` [GYZ-755] was tested, and the IC50 [5] was 29 nM and 28.7 nM.

`Nc1ncnc2c1ncn2[C@@H]1O[C@H](CN(C/C=C/c2cc(F)c(F)c(F)c2)CC[C@H](N)C(=O)O)[C@@H](O)[C@H]1O` [MH611] gave an IC50 [6] of 363 nM and an IC50 [7] of 363 nM.

`Nc1ncnc2c1ncn2[C@@H]1O[C@H](CN(C/C=C/c2ccc(S(=O)(=O)F)cc2)CC[C@H](N)C(=O)O)[C@@H](O)[C@H]1O` [GYZ-736] was tested, and the IC50 [5] was 68 nM and 67.9 nM.

In the case of `N#Cc1c(F)cc(/C=C/CN(CC[C@H](N)C(=O)O)C[C@H]2O[C@@H](n3cnc4c(N)ncnc43)[C@H](O)[C@@H]2O)cc1F` [GYZ-670], the IC50 [5] is reported as 2 nM and 1.99 nM.

`Nc1ncnc2c1ncn2[C@@H]1O[C@H](CN(C/C=C/c2c(F)c(F)c(F)c(F)c2F)CC[C@H](N)C(=O)O)[C@@H](O)[C@H]1O` [MH609] was tested, and the IC50 [6] was 400 nM and the IC50 [7] was 400 nM.

`CC(=O)N(C/C=C/c1ccc(C#N)cc1)C[C@H]1C[C@@H](n2ccc3c(Cl)ncnc32)[C@H](O)[C@@H]1O` [CM035] was tested, and the IC50 [8] was 3580 nM and the IC50 [9] was 3580 nM.

For `N#Cc1ccc(/C=C/CN(CCNC(=O)C(F)(F)F)C[C@H]2O[C@@H](n3cnc4c(N)ncnc43)[C@H](O)[C@@H]2O)cc1` [GYZ-693], the IC50 [3] was 7770 nM and the IC50 [4] was 7770 nM.

`CCNCCN(C/C=C/c1ccc(C#N)cc1)C[C@H]1O[C@@H](n2cnc3c(N)ncnc32)[C@H](O)[C@@H]1O` [GYZ-761] was tested, and the IC50 [3] was over 25000 nM and the IC50 [4] was over 25000 nM.

In the case of `Nc1ncnc2c1ncn2[C@@H]1O[C@H](CN(CC[C@H](N)C(=O)O)Cc2ccc(F)c([N+](=O)[O-])c2)[C@@H](O)[C@H]1O` [GYZ-417], the IC50 (read-out: IC50 values, Table 3, 1-carbon alkyl linkers, maximum concentration tested 25 μM) is reported as 410 nM and 407 nM.

`Nc1ncnc2c1ncn2[C@@H]1O[C@H](CN(C/C=C/c2ccc(C(=O)O)cc2)CC[C@H](N)C(=O)O)[C@@H](O)[C@H]1O` [GYZ-564] showed an IC50 [5] of over 25000 nM.

`C=CC(=O)N1CC(CN(C/C=C/c2ccc(C#N)cc2)C[C@H]2O[C@@H](n3cnc4c(N)ncnc43)[C@H](O)[C@@H]2O)C1` [GYZ-665] showed an IC50 [3] of 4160 nM and an IC50 [4] of 4160 nM.

Work on `C=CC(=O)NCCN(C/C=C/c1ccc(C#N)cc1)C[C@H]1O[C@@H](n2cnc3c(N)ncnc32)[C@H](O)[C@@H]1O` [GYZ-604] yielded an IC50 [3] of 21000 nM and an IC50 [4] of 21000 nM.

`Nc1ncnc2c1ncn2[C@@H]1O[C@H](CN(C/C=C/c2c(Cl)cccc2Cl)CC[C@H](N)C(=O)O)[C@@H](O)[C@H]1O` [GYZ-336] showed an IC50 [5] of over 25000 nM.

Work on `Nc1ncnc2c1ncn2[C@@H]1O[C@H](CN(CC[C@H](N)C(=O)O)Cc2cccc([N+](=O)[O-])c2)[C@@H](O)[C@H]1O` [GYZ-419] yielded an IC50 [1] of 320 nM and an IC50 [2] of 320 nM.

In the case of `Nc1ncnc2c1ncn2[C@@H]1O[C@H](CN(C/C=C/c2ccc(B(O)O)cc2)CC[C@H](N)C(=O)O)[C@@H](O)[C@H]1O` [GYZ-732], the IC50 [5] is reported as over 25000 nM.

`N#Cc1ccc(/C=C/CN(CC[C@H](N)C(=O)O)C[C@H]2O[C@@H](n3cnc4c(N)ncnc43)[C@H](O)[C@@H]2O)cc1F` [GYZ-658] was tested, and the IC50 [5] was under 5 nM.

In the case of `Nc1ncnc2c1ncn2[C@@H]1O[C@H](CN(C/C=C/c2ccccc2C(F)(F)F)CC[C@H](N)C(=O)O)[C@@H](O)[C@H]1O` [GYZ-326], the IC50 [5] is reported as 2850 nM.

In the case of `Nc1ncnc2c1ncn2[C@@H]1O[C@H](CN(CC[C@H](N)C(=O)O)Cc2ccc(S(=O)(=O)F)cc2)[C@@H](O)[C@H]1O` [GYZ-760], the IC50 [1] is reported as 5620 nM and the IC50 [2] is reported as 5620 nM.

In the case of `NC(=O)c1cc(/C=C/CN(CC[C@H](N)C(=O)O)C[C@H]2O[C@@H](n3cnc4c(N)ncnc43)[C@H](O)[C@@H]2O)ccc1Br` [GYZ-739], the IC50 [5] is reported as 7 nM and 6.8 nM.

`Nc1ncnc2c1ncn2[C@@H]1O[C@H](CN(C/C=C/c2cccc(S(=O)(=O)F)c2)CC[C@H](N)C(=O)O)[C@@H](O)[C@H]1O` [GYZ-764] was tested, and the IC50 [5] was 89 nM and 88.6 nM.

Compound `Nc1ncnc2c1ncn2[C@@H]1O[C@H](CN(CC[C@H](N)C(=O)O)Cc2ccccc2[N+](=O)[O-])[C@@H](O)[C@H]1O` [GYZ-425] has an IC50 [1] of over 25000 nM and an IC50 [2] of over 25000 nM.

Work on `N#Cc1c(F)c(F)c(/C=C/CN(CC[C@H](N)C(=O)O)C[C@H]2O[C@@H](n3cnc4c(N)ncnc43)[C@H](O)[C@@H]2O)c(F)c1F` [MH610] yielded an IC50 [6] of 7.14 nM and an IC50 [7] of 7 nM.

`N#Cc1ccc(/C=C/CN(CCS(=O)(=O)F)C[C@H]2O[C@@H](n3cnc4c(N)ncnc43)[C@H](O)[C@@H]2O)cc1` [GYZ-748] was tested, and the IC50 [3] was over 25000 nM and the IC50 [4] was over 25000 nM.

For `C=CC(=O)CCCN(C/C=C/c1ccc(C#N)cc1)C[C@H]1O[C@@H](n2cnc3c(N)ncnc32)[C@H](O)[C@@H]1O` [GYZ-704], the IC50 (read-out: IC50 values, Table 6, amino acid replacement, maximum concentration tested 25 μM) was 538 nM.

Work on `CC(=O)N(C/C=C/c1ccc(C#N)cc1)C[C@H]1C[C@@H](n2ccc3c(N)ncnc32)[C@H](O)[C@@H]1O` [CM037] yielded an IC50 [8] of 264 nM and an IC50 [9] of 260 nM.

With `N#Cc1ccc(/C=C/CN(C/C=C/c2ccc(C#N)cc2)C[C@H]2O[C@@H](n3cnc4c(N)ncnc43)[C@H](O)[C@@H]2O)cc1` [GYZ-466] the IC50 [3] was over 25000 nM and the IC50 [4] was over 25000 nM.

For `CCCCCN(C/C=C/c1ccc(C#N)cc1)C[C@H]1O[C@@H](n2cnc3c(N)ncnc32)[C@H](O)[C@@H]1O` [GYZ-718], the IC50 [3] was over 25000 nM and the IC50 [4] was over 25000 nM.

`N#Cc1ccc(/C=C/CN(CCNC(=O)C(F)(F)Br)C[C@H]2O[C@@H](n3cnc4c(N)ncnc43)[C@H](O)[C@@H]2O)cc1` [GYZ-706] gave an IC50 [3] of over 25000 nM and an IC50 [4] of over 25000 nM.

With `Nc1ncnc2c1ncn2[C@@H]1O[C@H](CN(CC[C@H](N)C(=O)O)Cc2ccc(F)cc2)[C@@H](O)[C@H]1O` [GYZ-423] the IC50 [1] was over 25000 nM and the IC50 [2] was over 25000 nM.

`Nc1ncnc2c1ncn2[C@@H]1O[C@H](CN(C/C=C/c2cccc(C(F)(F)F)c2)CC[C@H](N)C(=O)O)[C@@H](O)[C@H]1O` [GYZ-349] was tested, and the IC50 [5] was 164 nM.

For `Nc1ncnc2c1ncn2[C@@H]1O[C@H](CN(CC[C@H](N)C(=O)O)Cc2ccc(C(F)(F)F)cc2)[C@@H](O)[C@H]1O` [GYZ-414], the IC50 [1] was 6790 nM and the IC50 [2] was 6790 nM.

`Nc1ncnc2c1ncn2[C@@H]1O[C@H](CN(CC[C@H](N)C(=O)O)Cc2ccc([N+](=O)[O-])cc2)[C@@H](O)[C@H]1O` [GYZ-420] gave an IC50 [1] of 6610 nM and an IC50 [2] of 6610 nM.

`N#Cc1ccc(/C=C/CN(C/C=C/c2ccc(S(=O)(=O)F)cc2)C[C@H]2O[C@@H](n3cnc4c(N)ncnc43)[C@H](O)[C@@H]2O)cc1` [GYZ-743] showed an IC50 [3] of 7780 nM and an IC50 [4] of 7780 nM.

`Nc1ncnc2c1ncn2[C@@H]1O[C@H](CN(CC[C@H](N)C(=O)O)Cc2cccc(F)c2)[C@@H](O)[C@H]1O` [GYZ-422] gave an IC50 [1] of 1240 nM and an IC50 [2] of 1240 nM.

Compound `N#Cc1ccc(/C=C/CN(CCC[C@H](N)C(=O)O)C[C@H]2O[C@@H](n3cnc4c(N)ncnc43)[C@H](O)[C@@H]2O)cc1` [GYZ-485] has an IC50 [3] of 356 nM.
